Target: T1, Nano luciferase (NLuc) (Oplophorus gracilirostris, UniProt Q9GV45, A31E/A60N/A81I/F95D/I117V/K70R/L54V/L99Q/M102K/N193R/P142E/Q151K/Q38R/Q45L/V71I/Y165I)
T1 construct: His tag (inferred from IMAC purification); made in house; host or cells: E. coli
Assay: Thermal shift profiles (Thermofluor assay), NLuc
Format: binding
Set-up: unit of the concentration uncertain
Settings: compound 100 (unit uncertain); for Thermofluor NLuc, ATP: ATP (2 mM)
Description: Thermal stabilization of proteins in the presence of the ligands were determined using Thermofluor technique. MicroAmp optical 384-well plates (Applied Biosystems by Life Technologies), ViiA 7 real-time PCR instrument (Applied Biosystems by Life Technologies) and SYPRO Orange (Life Technologies) were used to test the samples. […]. Proteins were added to the 384-well plate first followed by the compounds. Samples were incubated for 10 mins at room temperature and protected from light. SYPRO Orange dye was diluted to 50x from 5000x stock in a PBS buffer, and 4 µL dye was added to the each well using a multi-channel pipette. The plate was sealed with a MicroAmp optical adhesive film, centrifuged at 1500 RPM for 2 min, and then loaded onto the ViiA 7 real–time PCR instrument for fluorescence intensity measurements upon heating the sample from 25 to 95 °C at 1 °C/min increments. Data was exported to excel, fluorescence intensity data and its first derivative were normalized and plotted using GraphPad Prism to determine Tm. See Supplementary Table 3 for additional details.
Supplementary Figure 6. Comparison of SDR and Thermofluor analysis of […]
Temperature °C Temperature °C […]
Supplementary Table 3. Protocol for Thermofluor assay
Supplementary Table 3: Protocol for Therm ofluor assay
Sequence Param eter Value Description […]
3 Incubation 10 m ins Room tem perature, protected from light
4 Dye 10X Sypro Orange dye in PBS added to the sam ple
5 Centrifugation 2 m in Centrifuge for 2 m in at 1500 RPM at RT
6 Read ViiA7 Read the therm al unfolding of the protein with ViiA7 real-tim e PCR system
4 Prepare 50X dye in PBS: 1 μL Sypro Orange 5000X (Life Technologies), 99 μL ddH2O. Add 4 μL to each well Read the m elting tem perature from 25 to 95 °C using ViiA 7 real tim e PCR instrum ent by following the below instructions Perform therm al denaturation in 384-well assay plate
(i) Place the assay plate into the Applied Biosystem s ViiA7 real-tim e PCR instrum ent and open the ViiA7 RUO software.
Under Experim ental Properties, select the following param eters: Set up: […] (20 μl), Experim ent type: MELT CURVE, Reagents used to detect target sequence: OTHER, Ram p Speed: […]
(ii) Select the Define tab on the left, then select the following param eters: Target nam e: TARGET 1, Reporter: ROX, 6 Quencher: NONE, Passive Reference: NONE
(iii) Select the Assign tab on the left, then perform the following actions: Highlight all 384 wells in the assay plate and check the box next to ‘Target 1’ on the top left of the plate layout. Note: check the ‘Sam ple’ box on the lower left.
(iv) Select the Run Method tab on the left, then m ake the following changes to the default Melt Curve profile: Delete Step 2 of the default cycle, change run m ethod to “Step and Hold” with a 1:00 tim e, set the following tem peratures: an initial 2:00 hold at 25 °C (4 °C), ram ping up in increm ents of 1 ° C to a final tem perature of 95 °C (with a 2:00 hold), click on all three cam eras to activate fluorescence detection throughout the experim ent, and Select total volum e per well of 20 μl
(v) Click on the RUN tab to the left to initiate therm al denaturation.

T1 sequence (Q9GV45 other isoform, or with tags, fused parts or gaps with the stated changes): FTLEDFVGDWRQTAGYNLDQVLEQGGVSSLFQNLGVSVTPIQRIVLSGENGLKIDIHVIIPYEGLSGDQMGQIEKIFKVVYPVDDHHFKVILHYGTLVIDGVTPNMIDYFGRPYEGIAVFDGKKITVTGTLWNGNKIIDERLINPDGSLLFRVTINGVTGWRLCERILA

## CC(CNC(=O)C1CCN(C(=O)c2ncn3c2COC(c2ccccc2)C3)CC1)c1ccccc1 (stereo not drawn) [NCGC 00449795]
20.000 °C
  Thermofluor NLuc, No ATP: 1
  Thermofluor NLuc, ATP: 0.97
20.993 °C
  Thermofluor NLuc, No ATP: 0.711
  Thermofluor NLuc, ATP: 0.992
21.987 °C
  Thermofluor NLuc, No ATP: 0.647
  Thermofluor NLuc, ATP: 1
22.980 °C
  Thermofluor NLuc, No ATP: 0.606
  Thermofluor NLuc, ATP: 0.993
23.974 °C
  Thermofluor NLuc, No ATP: 0.589
  Thermofluor NLuc, ATP: 0.974
24.967 °C
  Thermofluor NLuc, No ATP: 0.561
  Thermofluor NLuc, ATP: 0.95
25.960 °C
  Thermofluor NLuc, No ATP: 0.532
  Thermofluor NLuc, ATP: 0.929
26.954 °C
  Thermofluor NLuc, No ATP: 0.532
  Thermofluor NLuc, ATP: 0.916
27.947 °C
  Thermofluor NLuc, No ATP: 0.499
  Thermofluor NLuc, ATP: 0.908
28.940 °C
  Thermofluor NLuc, No ATP: 0.462
  Thermofluor NLuc, ATP: 0.904
29.934 °C
  Thermofluor NLuc, No ATP: 0.421
  Thermofluor NLuc, ATP: 0.9
30.927 °C
  Thermofluor NLuc, No ATP: 0.383
  Thermofluor NLuc, ATP: 0.894
31.921 °C
  Thermofluor NLuc, No ATP: 0.366
  Thermofluor NLuc, ATP: 0.886
32.914 °C
  Thermofluor NLuc, No ATP: 0.333
  Thermofluor NLuc, ATP: 0.878
33.907 °C
  Thermofluor NLuc, No ATP: 0.327
  Thermofluor NLuc, ATP: 0.87
34.901 °C
  Thermofluor NLuc, No ATP: 0.309
  Thermofluor NLuc, ATP: 0.863
35.894 °C
  Thermofluor NLuc, No ATP: 0.276
  Thermofluor NLuc, ATP: 0.856
36.887 °C
  Thermofluor NLuc, No ATP: 0.231
  Thermofluor NLuc, ATP: 0.849
37.881 °C
  Thermofluor NLuc, No ATP: 0.229
  Thermofluor NLuc, ATP: 0.841
38.874 °C
  Thermofluor NLuc, No ATP: 0.176
  Thermofluor NLuc, ATP: 0.833
39.868 °C
  Thermofluor NLuc, No ATP: 0.201
  Thermofluor NLuc, ATP: 0.827
40.861 °C
  Thermofluor NLuc, No ATP: 0.184
  Thermofluor NLuc, ATP: 0.824
41.854 °C
  Thermofluor NLuc, No ATP: 0.161
  Thermofluor NLuc, ATP: 0.821
42.848 °C
  Thermofluor NLuc, No ATP: 0.108
  Thermofluor NLuc, ATP: 0.817
43.841 °C
  Thermofluor NLuc, No ATP: 0.096
  Thermofluor NLuc, ATP: 0.812
44.835 °C
  Thermofluor NLuc, No ATP: 0.098
  Thermofluor NLuc, ATP: 0.805
45.828 °C
  Thermofluor NLuc, No ATP: 0.096
  Thermofluor NLuc, ATP: 0.794
46.821 °C
  Thermofluor NLuc, No ATP: 0.034
  Thermofluor NLuc, ATP: 0.779
47.815 °C
  Thermofluor NLuc, No ATP: 0.027
  Thermofluor NLuc, ATP: 0.76
48.808 °C
  Thermofluor NLuc, No ATP: 0.048
  Thermofluor NLuc, ATP: 0.734
50.795 °C
  Thermofluor NLuc, No ATP: 0.006
  Thermofluor NLuc, ATP: 0.656
51.788 °C
  Thermofluor NLuc, No ATP: 0.009
  Thermofluor NLuc, ATP: 0.601
52.782 °C
  Thermofluor NLuc, No ATP: 0
  Thermofluor NLuc, ATP: 0.533
53.775 °C
  Thermofluor NLuc, No ATP: 0.03
  Thermofluor NLuc, ATP: 0.451
54.768 °C
  Thermofluor NLuc, No ATP: 0.027
  Thermofluor NLuc, ATP: 0.357
55.762 °C
  Thermofluor NLuc, No ATP: 0.051
  Thermofluor NLuc, ATP: 0.257
56.755 °C
  Thermofluor NLuc, No ATP: 0.14
  Thermofluor NLuc, ATP: 0.161
57.748 °C
  Thermofluor NLuc, No ATP: 0.19
  Thermofluor NLuc, ATP: 0.079
58.742 °C
  Thermofluor NLuc, No ATP: 0.3
  Thermofluor NLuc, ATP: 0.022
59.735 °C
  Thermofluor NLuc, No ATP: 0.413
  Thermofluor NLuc, ATP: 0
60.729 °C
  Thermofluor NLuc, No ATP: 0.505
  Thermofluor NLuc, ATP: 0.015
61.722 °C
  Thermofluor NLuc, No ATP: 0.61
  Thermofluor NLuc, ATP: 0.065
62.715 °C
  Thermofluor NLuc, No ATP: 0.667
  Thermofluor NLuc, ATP: 0.143
63.709 °C
  Thermofluor NLuc, No ATP: 0.726
  Thermofluor NLuc, ATP: 0.238
65.695 °C
  Thermofluor NLuc, No ATP: 0.759
  Thermofluor NLuc, ATP: 0.437
66.689 °C
  Thermofluor NLuc, No ATP: 0.785
  Thermofluor NLuc, ATP: 0.525
68.676 °C
  Thermofluor NLuc, No ATP: 0.749
  Thermofluor NLuc, ATP: 0.658
69.669 °C
  Thermofluor NLuc, No ATP: 0.746
  Thermofluor NLuc, ATP: 0.703
70.662 °C
  Thermofluor NLuc, No ATP: 0.73
  Thermofluor NLuc, ATP: 0.736
71.656 °C
  Thermofluor NLuc, No ATP: 0.72
  Thermofluor NLuc, ATP: 0.76
72.649 °C
  Thermofluor NLuc, No ATP: 0.696
  Thermofluor NLuc, ATP: 0.778
73.643 °C
  Thermofluor NLuc, No ATP: 0.686
  Thermofluor NLuc, ATP: 0.793
74.636 °C
  Thermofluor NLuc, No ATP: 0.672
  Thermofluor NLuc, ATP: 0.807
75.629 °C
  Thermofluor NLuc, No ATP: 0.623
  Thermofluor NLuc, ATP: 0.82

— article PMC12064818, “A general assay platform to study protein pharmacology using ligand-dependent structural dynamics” (Nature Communications, 2025)
